Data: ChEMBL document CHEMBL3763146 (J Med Chem, 2016)

Columns and labels:
[1] = molecular target: T1, Beta-3 adrenergic receptor (Rattus norvegicus, UniProt P26255); experiment: Agonist activity at rat beta3 adrenergic receptor expressed in CHO cells assessed as accumulation of cAMP after 30 mins by TR-FRET assay in presence of 40% serum; assay type: functional, cell-based
Rattus norvegicus [2] = experiment: Increase in circulating free fatty acid level in iv infused Sprague-Dawley rat after 45 mins by liquid chromatography-tandem mass spectrometric analysis; assay type: functional
[3] = molecular target: Beta-3 adrenergic receptor (Macaca mulatta) (UniProt Q28524); experiment: Agonist activity at rhesus monkey beta3 adrenergic receptor expressed in CHO cells assessed as accumulation of cAMP after 30 mins by TR-FRET assay relative to (R)-(-)-isoproterenol; assay type: functional, cell-based
Beta-3 adrenergic receptor (Macaca mulatta), sequence (Q28524 whole entry, the tested form may be a part): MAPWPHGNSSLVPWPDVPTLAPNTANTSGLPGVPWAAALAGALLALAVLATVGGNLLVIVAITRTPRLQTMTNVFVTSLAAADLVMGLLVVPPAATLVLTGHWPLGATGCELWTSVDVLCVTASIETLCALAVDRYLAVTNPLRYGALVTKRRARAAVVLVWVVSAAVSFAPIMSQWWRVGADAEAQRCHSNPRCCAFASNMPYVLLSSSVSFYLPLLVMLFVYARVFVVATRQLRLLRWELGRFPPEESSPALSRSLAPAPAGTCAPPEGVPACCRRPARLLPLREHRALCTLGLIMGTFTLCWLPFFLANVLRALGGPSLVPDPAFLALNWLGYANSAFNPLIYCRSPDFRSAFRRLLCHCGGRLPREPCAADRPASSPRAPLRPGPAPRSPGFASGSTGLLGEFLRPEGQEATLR

Rattus norvegicus [4] = organism: Rattus norvegicus; experiment: Toxicity in Sprague-Dawley rat assessed as antemortem parameters measured up to 6 months; assay type: organism-based; conditions: in vivo
[5] = molecular target: Beta-3 adrenergic receptor (Macaca mulatta, UniProt Q28524); experiment: Agonist activity at rhesus monkey beta3 adrenergic receptor expressed in CHO cells assessed as accumulation of cAMP after 30 mins by TR-FRET assay in presence of 40% serum; assay type: functional, cell-based
Beta-3 adrenergic receptor (Macaca mulatta, UniProt Q28524), sequence (Q28524 whole entry): as the sequence (Q28524 whole entry, the tested form may be a part) above

Cytochrome P450 2C8 = Cytochrome P450 2C8 (Homo sapiens, UniProt P10632); experiment: Inhibition of CYP2C8 in human liver microsomes; assay type: ADME
Cytochrome P450 2C8, sequence (P10632 whole entry): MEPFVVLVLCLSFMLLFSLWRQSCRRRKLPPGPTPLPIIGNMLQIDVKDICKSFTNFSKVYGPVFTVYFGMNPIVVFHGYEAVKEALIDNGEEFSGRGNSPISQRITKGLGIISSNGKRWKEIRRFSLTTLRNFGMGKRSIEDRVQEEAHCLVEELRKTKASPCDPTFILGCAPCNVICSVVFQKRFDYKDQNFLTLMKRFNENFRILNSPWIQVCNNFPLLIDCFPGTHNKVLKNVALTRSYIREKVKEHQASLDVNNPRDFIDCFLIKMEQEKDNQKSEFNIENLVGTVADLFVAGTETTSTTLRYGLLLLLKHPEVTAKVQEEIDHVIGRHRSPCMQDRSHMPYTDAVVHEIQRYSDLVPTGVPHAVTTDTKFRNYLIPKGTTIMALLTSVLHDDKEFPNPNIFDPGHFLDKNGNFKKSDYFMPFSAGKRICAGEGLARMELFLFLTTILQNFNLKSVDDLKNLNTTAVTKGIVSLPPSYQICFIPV

[6] = Chemical stability of the compound under forced degradation condition; assay type: physicochemical
[7] = Stability in rat plasma assessed as parent compound remaining at 24 hrs by LC-MS analysis; assay type: ADME, cell-free; conditions: read-out: Stability
[8] = Drug recovery in bile duct cannulated rat feces at 5 mg/kg, iv measured over 48 hrs; assay type: ADME, organism-based; conditions: faeces, read-out: Drug recovery
Rhesus monkey = experiment: Dose normalized fAUC in rhesus monkey at 2 mg/kg, po; assay type: ADME, organism-based, Macaca mulatta; conditions: in vivo
Cynomolgus monkey [9] = experiment: Toxicity in cynomolgus monkey assessed as effect on electrocadiograms measured up to 9 months; assay type: organism-based, Macaca fascicularis; conditions: in vivo
MDR1 (human) = experiment: Apparent permeability of the compound in pig LLC-PK1 cells expressing human MDR1 at 5 uM measured at 3 hrs by LC/MS/MS analysis; assay type: ADME, cell-based, Sus scrofa
Cytochrome P450 2B6 = Cytochrome P450 2B6 (Homo sapiens, UniProt P20813); experiment: Inhibition of CYP2B6 in human liver microsomes; assay type: ADME
Cytochrome P450 2B6, sequence (P20813 whole entry): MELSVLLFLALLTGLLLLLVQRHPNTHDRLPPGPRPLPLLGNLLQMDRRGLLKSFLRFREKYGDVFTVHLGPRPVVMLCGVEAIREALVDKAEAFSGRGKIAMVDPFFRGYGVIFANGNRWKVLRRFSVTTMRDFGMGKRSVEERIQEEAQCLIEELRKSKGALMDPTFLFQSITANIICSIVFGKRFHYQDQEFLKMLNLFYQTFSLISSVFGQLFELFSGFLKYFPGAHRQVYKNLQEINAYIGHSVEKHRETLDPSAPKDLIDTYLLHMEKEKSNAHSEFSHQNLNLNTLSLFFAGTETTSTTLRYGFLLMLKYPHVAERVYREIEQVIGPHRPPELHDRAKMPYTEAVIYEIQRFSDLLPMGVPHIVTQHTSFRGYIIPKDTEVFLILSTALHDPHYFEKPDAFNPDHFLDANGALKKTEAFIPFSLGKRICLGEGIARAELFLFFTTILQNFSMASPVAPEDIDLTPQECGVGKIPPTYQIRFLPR

[10] = molecular target: Beta-3 adrenergic receptor (Homo sapiens, UniProt P13945); experiment: Agonist activity at human adrenergic beta3 receptor expressed in CHO cells assessed as accumulation of cAMP after 30 mins by TR-FRET assay in presence of 40% serum relative to (R)-(-)-isoproterenol; assay type: functional, cell-based
Beta-3 adrenergic receptor (Homo sapiens, UniProt P13945), sequence (P13945 whole entry, looked up): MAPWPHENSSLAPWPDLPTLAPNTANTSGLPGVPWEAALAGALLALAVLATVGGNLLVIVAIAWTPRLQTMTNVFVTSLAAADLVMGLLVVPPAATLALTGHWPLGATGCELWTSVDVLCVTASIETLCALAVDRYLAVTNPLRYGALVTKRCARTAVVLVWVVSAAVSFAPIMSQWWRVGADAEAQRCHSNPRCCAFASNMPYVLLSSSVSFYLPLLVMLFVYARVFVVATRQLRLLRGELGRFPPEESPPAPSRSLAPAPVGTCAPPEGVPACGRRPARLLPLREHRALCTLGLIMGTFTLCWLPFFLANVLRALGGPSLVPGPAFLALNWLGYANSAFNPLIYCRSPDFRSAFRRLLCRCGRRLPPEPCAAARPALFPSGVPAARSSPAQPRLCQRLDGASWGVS

[11] = molecular target: Beta-3 adrenergic receptor (Canis lupus familiaris, UniProt O02662); experiment: Agonist activity at dog beta3 adrenergic receptor expressed in CHO cells assessed as accumulation of cAMP after 30 mins by TR-FRET assay; assay type: functional, cell-based
Beta-3 adrenergic receptor (Canis lupus familiaris, UniProt O02662), sequence (O02662 whole entry): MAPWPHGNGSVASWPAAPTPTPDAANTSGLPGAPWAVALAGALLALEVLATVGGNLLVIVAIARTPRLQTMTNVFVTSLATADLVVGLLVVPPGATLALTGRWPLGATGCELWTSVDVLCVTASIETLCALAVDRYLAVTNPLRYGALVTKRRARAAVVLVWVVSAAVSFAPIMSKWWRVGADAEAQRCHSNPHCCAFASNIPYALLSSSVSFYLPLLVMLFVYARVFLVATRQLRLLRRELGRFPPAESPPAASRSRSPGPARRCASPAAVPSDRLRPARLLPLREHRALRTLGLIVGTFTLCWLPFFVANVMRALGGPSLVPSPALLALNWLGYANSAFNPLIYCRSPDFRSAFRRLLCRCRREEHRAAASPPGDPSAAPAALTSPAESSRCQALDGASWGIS

Cynomolgus monkey [12] = experiment: Unbound clearance in cynomolgus monkey at 0.5 mg/kg, iv or 2 mg/kg, po; assay type: ADME, organism-based, Macaca fascicularis; conditions: in vivo
[13] = molecular target: Beta-3 adrenergic receptor (Macaca mulatta) (UniProt Q28524); experiment: Agonist activity at rhesus monkey beta3 adrenergic receptor expressed in CHO cells assessed as accumulation of cAMP after 30 mins by TR-FRET assay in presence of 40% serum relative to (R)-(-)-isoproterenol; assay type: functional, cell-based
Rattus norvegicus [14] = experiment: Increase in detrusor muscle relaxation in iv infused Sprague-Dawley rat acetic acid-induced bladder hyperreflexia model assessed as decrease in micturition pressure measured over 30 to 45 mins; assay type: functional, organism-based
[15] = Solubility of the compound in buffer at pH <= […]; assay type: physicochemical
[16] = molecular target: Voltage-gated inwardly rectifying potassium channel KCNH2 (Homo sapiens, UniProt Q12809); experiment: Binding affinity to human ERG channel
Voltage-gated inwardly rectifying potassium channel KCNH2, sequence (Q12809 whole entry): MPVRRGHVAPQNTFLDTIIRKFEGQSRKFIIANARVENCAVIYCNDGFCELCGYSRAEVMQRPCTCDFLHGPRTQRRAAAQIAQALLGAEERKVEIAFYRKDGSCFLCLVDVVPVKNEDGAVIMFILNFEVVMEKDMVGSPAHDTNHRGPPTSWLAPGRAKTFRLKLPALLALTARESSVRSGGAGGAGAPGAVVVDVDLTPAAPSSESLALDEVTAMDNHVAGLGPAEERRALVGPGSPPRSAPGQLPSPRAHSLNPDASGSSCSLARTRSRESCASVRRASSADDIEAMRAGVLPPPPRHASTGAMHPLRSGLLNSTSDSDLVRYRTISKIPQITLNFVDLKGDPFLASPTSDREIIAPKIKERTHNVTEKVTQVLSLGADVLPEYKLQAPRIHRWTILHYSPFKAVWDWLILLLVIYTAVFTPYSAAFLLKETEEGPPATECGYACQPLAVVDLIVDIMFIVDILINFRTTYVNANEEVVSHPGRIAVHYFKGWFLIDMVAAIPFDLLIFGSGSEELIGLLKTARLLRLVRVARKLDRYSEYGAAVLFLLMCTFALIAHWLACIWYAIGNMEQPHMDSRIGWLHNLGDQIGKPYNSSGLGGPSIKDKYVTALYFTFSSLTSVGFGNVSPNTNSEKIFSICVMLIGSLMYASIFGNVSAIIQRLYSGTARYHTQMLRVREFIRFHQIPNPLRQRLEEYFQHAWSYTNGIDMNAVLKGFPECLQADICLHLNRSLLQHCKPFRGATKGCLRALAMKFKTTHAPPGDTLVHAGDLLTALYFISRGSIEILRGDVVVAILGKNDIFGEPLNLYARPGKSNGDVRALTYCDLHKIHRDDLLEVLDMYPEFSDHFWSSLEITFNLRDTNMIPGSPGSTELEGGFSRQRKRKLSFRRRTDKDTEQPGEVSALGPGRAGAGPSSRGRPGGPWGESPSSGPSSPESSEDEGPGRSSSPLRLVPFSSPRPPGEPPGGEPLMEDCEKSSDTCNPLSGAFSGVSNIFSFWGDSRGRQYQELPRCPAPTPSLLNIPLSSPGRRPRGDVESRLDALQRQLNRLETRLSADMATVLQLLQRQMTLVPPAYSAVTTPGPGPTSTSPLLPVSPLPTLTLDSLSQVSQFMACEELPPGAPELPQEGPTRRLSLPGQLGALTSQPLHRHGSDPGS

[17] = molecular target: T1, Beta-3 adrenergic receptor; experiment: Agonist activity at rat beta3 adrenergic receptor expressed in CHO cells assessed as accumulation of cAMP after 30 mins by TR-FRET assay; assay type: functional, cell-based
[18] = Plasma clearance in cynomolgus monkey at 0.5 mg/kg, iv or 2 mg/kg, po; assay type: ADME, organism-based, Macaca fascicularis
[19] = Intrinsic clearance in human liver microsomes; assay type: ADME; conditions: read-out: CLH
[20] = Drug recovery in bile duct cannulated rat urine at 10 mg/kg, po measured over 48 hrs; assay type: ADME, organism-based; conditions: read-out: Drug recovery
Canis familiaris [21] = experiment: Dose normalized total AUC in dog at 2 mg/kg, po; assay type: ADME, organism-based, Canis lupus familiaris; conditions: in vivo
[22] = Induction of phospholidosis in human HepG2 cells incubated overnight by […] in presence of fluorescent labeled phospholipid probe NBD-PE; assay type: cell-based; conditions: read-out: A50
Cytochrome P450 2C19 = Cytochrome P450 2C19 (Homo sapiens, UniProt P33261); experiment: Inhibition of CYP2C19 in human liver microsomes; assay type: ADME
Cytochrome P450 2C19, sequence (P33261 whole entry): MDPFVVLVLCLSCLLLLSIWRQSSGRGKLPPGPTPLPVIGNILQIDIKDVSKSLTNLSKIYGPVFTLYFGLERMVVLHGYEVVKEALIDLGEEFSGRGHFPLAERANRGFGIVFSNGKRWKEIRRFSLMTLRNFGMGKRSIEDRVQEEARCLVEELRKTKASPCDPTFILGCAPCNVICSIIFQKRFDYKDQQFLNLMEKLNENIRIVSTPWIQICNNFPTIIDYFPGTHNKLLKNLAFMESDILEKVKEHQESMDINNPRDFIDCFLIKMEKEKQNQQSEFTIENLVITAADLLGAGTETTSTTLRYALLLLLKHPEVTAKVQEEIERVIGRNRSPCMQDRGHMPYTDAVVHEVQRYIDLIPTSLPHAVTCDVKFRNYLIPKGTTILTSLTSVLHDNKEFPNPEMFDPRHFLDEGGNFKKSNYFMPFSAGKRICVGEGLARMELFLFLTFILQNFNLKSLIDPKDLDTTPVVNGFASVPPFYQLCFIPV

Rattus norvegicus [23] = experiment: Unbound clearance in rat at 1 mg/kg, iv or 2 mg/kg, po; assay type: ADME, organism-based; conditions: in vivo
[24] = Stability in dog plasma assessed as parent compound remaining at 24 hrs by LC-MS analysis; assay type: ADME, cell-free, Canis lupus familiaris; conditions: read-out: Stability
[25] = Drug recovery in bile duct cannulated rat at 5 mg/kg, iv measured over 48 hrs; assay type: ADME, organism-based; conditions: in vivo, read-out: Drug recovery
[26] = Distribution coefficient, logD of the compound at pH 7.4; assay type: physicochemical; conditions: octanol/water
[27] = Drug recovery in bile duct cannulated rat feces at 10 mg/kg, po measured over 48 hrs; assay type: ADME, organism-based; conditions: faeces, read-out: Drug recovery
[28] = molecular target: Beta-3 adrenergic receptor (Rattus norvegicus) (UniProt P26255); experiment: Agonist activity at rat beta3 adrenergic receptor expressed in CHO cells assessed as accumulation of cAMP after 30 mins by TR-FRET assay in presence of 40% serum relative to (R)-(-)-isoproterenol; assay type: functional, cell-based
Beta-3 adrenergic receptor (Rattus norvegicus), sequence (P26255 whole entry): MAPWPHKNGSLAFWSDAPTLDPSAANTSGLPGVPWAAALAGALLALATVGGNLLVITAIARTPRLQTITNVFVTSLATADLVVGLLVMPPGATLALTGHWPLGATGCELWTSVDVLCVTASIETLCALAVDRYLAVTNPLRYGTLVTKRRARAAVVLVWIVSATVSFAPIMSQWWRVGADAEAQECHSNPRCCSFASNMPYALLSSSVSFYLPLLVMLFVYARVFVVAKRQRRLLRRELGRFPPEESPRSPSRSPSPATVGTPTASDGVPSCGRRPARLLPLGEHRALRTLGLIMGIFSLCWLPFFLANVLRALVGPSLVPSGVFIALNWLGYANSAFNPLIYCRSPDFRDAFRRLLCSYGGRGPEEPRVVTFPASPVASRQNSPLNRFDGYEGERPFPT

[29] = Half life in rhesus monkey at 0.5 mg/kg, iv or 2 mg/kg, po; assay type: ADME, organism-based, Macaca mulatta; conditions: in vivo
[30] = Oral bioavailability in rhesus monkey at 2 mg/kg; assay type: ADME, organism-based, Macaca mulatta; conditions: in vivo
Canis familiaris [31] = experiment: Dose normalized fAUC in dog at 2 mg/kg, po; assay type: ADME, organism-based, Canis lupus familiaris; conditions: in vivo
[32] = Fraction unbound in dog at 0.5 mg/kg, iv or 2 mg/kg, po; assay type: ADME, organism-based, Canis lupus familiaris; conditions: in vivo

T1 sequence (P26255 whole entry, the tested form may be a part): as the sequence (P26255 whole entry) above

EC50 [1]: 0.122 µM | max activation [3]: 87% | EC50 [5]: 0.0071 µM | IC50 (Cytochrome P450 2C8): > 100 µM | Stability [6]: Stable | remaining at 24 h [7]: 100% | dose excreted at 48 h [8]: 13% | fAUC/dose (Rhesus monkey): 260 nM·h/mg/kg | Papp at 3 h, 5 µM (MDR1 (human)): 2.4 ×10⁻⁶ cm/s | IC50 (Cytochrome P450 2B6): > 100 µM | max activation [10]: 101% | EC50 [11]: 0.011 µM | CL free (Cynomolgus monkey [12]): 34 mL/min/kg | max activation [13]: 103% | solubility [15]: > 4000 µg/mL | EC50 [17]: 0.086 µM | clearance [18]: 20 mL/min/kg | CLint scaled [19]: < 10 mL/min/kg | dose excreted at 48 h [20]: 32% | AUC/dose (Canis familiaris [21]): 1200 nM·h/mg/kg | AC50 [22]: > 70 µM | IC50 (Cytochrome P450 2C19): > 100 µM | CL free (Rattus norvegicus [23]): 67 mL/min/kg | remaining at 24 h [24]: 100% | dose excreted at 48 h [25]: 83% | logD [26]: 0.9 | dose excreted at 48 h [27]: 19% | max activation [28]: 89% | half-life [29]: 14 h | bioavailability [30]: 23% | fAUC/dose (Canis familiaris [31]): 490 nM·h/mg/kg | fraction unbound [32]: 0.41
Structure (SMILES): O=C(Nc1ccc(C[C@@H]2CC[C@H]([C@H](O)c3ccccc3)N2)cc1)[C@@H]1CCc2nccc(=O)n21 [VIBEGRON]
Activity (Rattus norvegicus [2]): Dose-dependent effect | minimal effective dose (Rattus norvegicus [2]; 0.75 h, read-out: MED): 0.3 mg/kg | Activity (Rattus norvegicus [4]): Non-toxic | Activity (Cynomolgus monkey [9]): Non-toxic | Activity (Rattus norvegicus [14]): Dose-dependent effect | IC50 [16]: > 30 µM
